In patent US9718809B2, “Bisarylsulfonamides useful in the treatment of inflammation and cancer” (Kancera AB, priority 2011, dated 2017):

Key:
[1] = test system: F-2,6-P2 in MCF-7 cells; test: Quantification of F-2,6-P2 (Van Schaftingen coupled enzyme assay) in MCF-7 cells; assay type: cell-based; details: Homo sapiens, MCF7, read-out: IC50 based on quantification of F-2,6-P2
From the text: (§1) A method for quantification of F-2,6-P2 has been described by Van Schaftingen et al. (1982) Eur. J. Biochem. 129, 191-5. This sensitive assay is based on the potent activation of pyrophosphate dependent phosphofructokinase-1 (PPi-PFK) from potato tubers by F-2,6-P2. The use of a series of coupled enzymes leads to a consumption of NADH (nicotinamide adenine dinucleotide) that can be followed spectrophotometrically (an updated protocol is available in Van Schaftingen, (1984) Methods of Enzymatic Analysis (Bergmeyer, H. U., ed.), 3rd edn., vol. 6, pp. 335-341, Verlag Chemie, Weinheim). A protocol for measurements in 96-well microtiter plate format is also available (Bruni et al., (1989) Anal. Biochem. 178, 324-6).
(§2) The levels of F-2,6-P2 have been determined using the van Shaftingen assay as described in the protocol below, in six different cancer cell lines endogenously expressing varying levels of the different isoforms of PFK-2/BPase-2 (MCF-7, PANC-1, NUGC-3, SW480, SW620 and MIA PaCa-2). All reagents were purchased from commercial sources or prepared in-house.
Cell line A (MCF-7, human breast adenocarcinoma cell line): MCF-7 cells (ATCC-HTB-22), lot. no. 58469417. […]

[2] = test system: F-2,6-P2 in MIA PaCa-2 cells; test: Quantification of F-2,6-P2 (Van Schaftingen coupled enzyme assay) in MIA PaCa-2 cells; assay type: cell-based; details: Homo sapiens, read-out: IC50 based on quantification of F-2,6-P2
From the text: as §1, §2
Cell line F (MIA PaCa-2, human pancreatic carcinoma): MIA PaCa-2 cells (ATCC-CRL-1420), lot. no. 59270201. Cells were seeded at a concentration of ˜250 000 cells/mL in 100 μL growth medium (˜25 000 cells/well). […]

[3] = Cell toxicity, CellTiter-Blue Cell Viability Assay; details: human, MIA PaCa-2 pancreatic carcinoma cells, MIA PaCa-2 cells, 72 h culture, read-out: IC50 based on cell toxicity
Description: The CellTiter-Blue® Cell Viability Assay provides a homogeneous, fluorometric method for estimating the number of viable cells present in multi-well plates. It uses the indicator dye resazurin to measure the metabolic capacity of cells. Viable cells retain the ability to reduce resazurin into resorufin, which is highly fluorescent.
Stock solutions (10 or 100 mM in DMSO) of compounds were serially diluted 1:2 in 11 concentrations. 25 nL/well (100 mM stock) or 50 nL/well (10 mM stock) were acoustically dispensed in assay plates with EDC acoustic dispenser. Final starting conc. in assay was 20 μM (0.2% DMSO) or 100 μM (0.1% DMSO) for test compounds.
Cells (MIA-PaCa-2; pancreatic carcinoma) were seeded in assay plates (384-well black/clear, Greiner #781091) pre-dispensed with compounds, 25 μL/well, and cultured for 72 h. The cell concentration was 750 cells/well. After 72 h culture, Celltiter Blue reagent was added (5 μL/well) and the plates were incubated for 2 h. The plates were read in an Envision fluorescence reader with Ex544 nm/Em590 nm. Results were calculated as % cytotoxicity compared to background (cells treated with 0.2% DMSO).

[4] = test system: MIA PaCa-2 xenografts; test: Inhibition of tumour growth, MIA PaCa-2 xenografts in NMRI nude mice; assay type: in vivo, mouse; details: 45 mg/kg twice a day, 3 weeks
Description: FIG. 3 illustrates the effects of treatment with Example 183 on the growth of established xenografts from the human pancreatic carcinoma cell line MIA PaCa-2 in NMRI nude mice. NMRI nude mice were injected subcutaneously with MIA PaCa-2 cells. At an average tumor size of around 100 mm^3 mice were selected and randomized into treated (injected with substance) and control (vehicle treated) groups. Example 183 was administered at two doses, 25 mg/kg and 45 mg/kg, twice a day with 12 hours between administrations. From the day of inoculation the tumors were scored or measured three times a week using a digital caliper, and the body weights were determined at the same time points. The dose of injected substance was adjusted to the actual body weight of each animal. The dosing of the animals was in a period of 3 weeks.

[5] = In vitro metabolic stability in human liver microsomes; assay type: in vitro ADME; details: pH 7.4, pooled human liver microsomes 0.5 mg/ml, NADPH 1 mM, compound 3 μM
Description: Pooled human liver microsomes (final protein conc 0.5 mg/ml), 0.1 M phosphate buffer (pH 7.4) and NADPH (final conc 1 mM) were pre-incubated at 37° C. Example 183 (final conc 3 μM) was added to initiate the reaction. A control incubation where 0.1 M phosphate buffer (pH 7.4) was added instead of NADPH was done as a parallel experiment. After incubation for 0, 5, 10, 30 and 45 min with NADPH (for 45 min in the control incubation), MeCN containing internal standard was added to stop the reactions. The samples were centrifuged at 2500 rpm for 20 min at 4° C. before analysis using LC-MS/MS.

[6] = Plasma exposure in NMRI nude mice; assay type: in vivo, mouse; details: 45 mg/kg, 0.5 h after last injection (day 21)
Description: In a related study using the same dosing schedule in NMRI nude mice, blood samples were drawn 0.5 h after last injection (day 21) to determine exposure of Example 183. Plasma, prepared by centrifugation of the blood, was frozen and kept at −20° C. Thawed plasma samples were precipitated with MeCN, centrifuged and the supernatants were analyzed by LC-MSMS. Standard samples, prepared by spiking blank plasma with Example 183, were used for quantification.

[7] = test system: NMRI mice; test: In vivo tolerance in NMRI mice; parameters: species or system mouse; details: 25 and 45 mg/kg
Description: In vivo tolerance was tested in NMRI mice using Examples 157 and 183 in 2 doses (25 and 45 mg/kg), following intraperitoneal injections daily for seven days.

Row | IC50 [1] [nM] | IC50 [2] [nM] | half-life at 3 μM [5] [min] | microsomal CLint at 3 μM ([5]; read-out: intrinsic clearance) [µL/min/mg] | exposure of unbound compound in plasma versus in vitro IC50 value (MIA PaCa-2 cells) [6] | SMILES | IC50 at 72 h [3] [nM] | tumor growth compared to a vehicle treated group [4] | histological examinations of organs ([7]; intraperitoneal daily for seven days, adrenal gland, brain, cerebellum, heart, intestines, kidneys, liver, lungs, mesenteric lymph node, pancreas, spleen) | macro observations during and after treatment ([7]; intraperitoneal injections daily for seven days)
1 | 900 |  |  |  |  | COCCOC(=O)c1ccc(NS(=O)(=O)c2cc(-c3ccc4c(c3)CCO4)c(Cl)s2)cc1O [Example 76, 2-Methoxyethyl 4-({[5-chloro-4-(2,3-dihydro-1-benzofuran-5-yl)-2-thienyl]sulfonyl}amino)-2-hydroxybenzoate] |  |  |  | 
2 |  | 200 | 55 | 25 | exceeded the in vitro IC50 value | O=C(OCCO)c1ccc(NS(=O)(=O)c2cccc(-c3cc(F)ccc3O)c2)cc1O [Example 183, 2-Hydroxyethyl 4-{[(5′-fluoro-2′-hydroxybiphenyl-3-yl)sulfonyl]amino}-2-hydroxybenzoate] | 2600 | significant inhibition (p<0.01) | Specific lesions consistent with toxic damage were not observed | no sign of abnormal behavior or health problem
